Test results published in patent US20200288710A1, “SUBSTITUTED SULPHONAMIDES FOR CONTROLLING ANIMAL PESTS” (BAYER CROPSCIENCE AKTIENGESELLSCHAFT, priority 2016, published 2020).

How the values were obtained:
Assay type in all cases: in vivo
Myzus persicae [1] = test: Myzus persicae spray test (Chinese cabbage leaf discs); details: foliar, 120 h, 500 g/ha, after 5-6 days, read-out: efficacy
In short: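 Formulated compound in acetone/dimethylformamide, diluted in water with 1000 ppm emulsifier, was sprayed onto Brassica pekinensis leaf discs carrying mixed-stage Myzus persicae. Percent mortality was read 5-6 days later (0% = no aphids killed, 100% = all killed).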

Meloidogyne incognita = Meloidogyne incognita test; details: 336 h, lettuce, after 14 days, read-out: nematicidal efficacy (formation of galls)
In short: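 Gall formation on lettuce roots scored after 14 days: 0% means gall count equals untreated control, 100% means none. Sand vessels held the compound (acetone concentrate diluted in water), southern root-knot nematode egg/larvae suspension and lettuce seeds.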

Myzus persicae [2] = test: Myzus persicae oral test; details: 120 h, 20 ppm, oral uptake, after 5 days, read-out: efficacy
In short: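 Aphids of mixed ages imbibe, through parafilm, compound solution (acetone stock, water-diluted) combined with sugar-supplemented IPL41 medium to 200 μl. Efficacy read at day 5 as percent killed, 0% meaning no deaths.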

Structure (SMILES)	pest or weed control at 500 g/ha (Myzus persicae [1]) [%]	pest or weed control at 20 ppm (Meloidogyne incognita) [%]	pest or weed control at 20 ppm (Myzus persicae [2]) [%]
Cn1cc(C(=O)NS(=O)(=O)c2ccc(Cl)s2)nc1-c1c(F)cccc1F [Example 352]	90	100	100
Cn1cc(C(=O)NS(=O)(=O)c2ccc(Cl)cc2)nc1-c1c(F)cccc1Cl [Example 114]	90	100	100
Cn1cc(C(=O)NS(=O)(=O)c2ccccc2Cl)nc1-c1sccc1Cl [Example 547]	90	100	90
COc1ccc(C)c(S(=O)(=O)NC(=O)c2cn(C)c(-c3ncccc3F)n2)c1 [Example 593]	100	90	100
CCc1ccsc1S(=O)(=O)NC(=O)c1cn(C)c(-c2ncccc2Cl)n1 [Example 605]	100	90	100
CC(C)Nc1cccc(F)c1S(=O)(=O)NC(=O)c1cn(C)c(-c2c(F)cccc2F)n1 [Example 178]	90	100	100
Cn1cc(C(=O)NS(=O)(=O)c2c(Cl)cc(Cl)cc2Cl)nc1-c1c(F)cccc1F [Example 435]	100	90	100
Cc1c(C(=O)NS(=O)(=O)c2ccccc2)nc(-c2ccccc2Cl)n1C [Example 39]	90	90	90
Cc1ccccc1S(=O)(=O)NC(=O)c1cn(C)c(-c2ncccc2F)n1 [Example 500]	100	90	100
O=C(NS(=O)(=O)c1c(Cl)cccc1Cl)c1cc(-c2ncccc2Cl)n(-c2ccccc2Cl)n1 [Example 266]	90	90	100
Cc1ccccc1S(=O)(=O)NC(=O)c1cc(C)n(-c2ccccc2Cl)n1 [Example 272]	100	100	100
Cn1cc(C(=O)NS(=O)(=O)c2ccc(Br)cc2Cl)nc1-c1c(F)cccc1F [Example 440]	100	100	100
CCc1ccccc1S(=O)(=O)NC(=O)c1cc(OC)n(-c2ccccc2Cl)n1 [Example 281]	90	100	100
COc1ccc(Cl)c(S(=O)(=O)NC(=O)c2cn(C)c(-c3cccc(Cl)c3Cl)n2)c1 [Example 554]	90	90	100
Cn1nc(C(=O)NS(=O)(=O)c2ccccc2Br)nc1-c1c(F)cccc1F [Example 158]	100	90	100
Cn1nc(C(=O)NS(=O)(=O)c2c(Cl)cccc2Cl)nc1-c1c(F)cccc1F [Example 13]	100	90	100
CCn1cc(C(=O)NS(=O)(=O)c2ccccc2)nc1-c1ccccc1Cl [Example 41]	90	90	90
Cn1cc(C(=O)NS(=O)(=O)c2cccc(Cl)c2Cl)nc1-c1ccccc1Cl [Example 38]	90	100	100
Cc1ccccc1-c1nc(C(=O)NS(=O)(=O)c2c(Cl)cccc2Cl)cn1C [Example 99]	90	90	100
Cn1cc(C(=O)NS(=O)(=O)c2ccccc2)nc1-c1c(Cl)cccc1Cl [Example 44]	90	100	90
Cc1ccccc1-c1nc(C(=O)NS(=O)(=O)c2ccccc2C)cn1C [Example 29]	100	90	100
Cn1cc(C(=O)NS(=O)(=O)c2c(F)cccc2Cl)nc1-c1c(F)cccc1F [Example 431]	90	90	100
Cc1cc(C(=O)NS(=O)(=O)c2ccccc2Br)nn1-c1c(F)cccc1F [Example 257]	90	90	100
Cn1cc(C(=O)NS(=O)(=O)c2ccccc2Cl)nc1-c1cc(F)ccc1F [Example 515]	90	90	100

Structure (SMILES)	pest or weed control at 500 g/ha (Myzus persicae [1]) [%]	pest or weed control at 20 ppm (Meloidogyne incognita) [%]	pest or weed control at 20 ppm (Myzus persicae [2]) [%]
Cc1csc(S(=O)(=O)NC(=O)c2cn(C)c(-c3c(F)cccc3F)n2)c1 [Example 350]	100	90	90
Cn1cc(C(=O)NS(=O)(=O)c2sccc2Br)nc1-c1ccccc1Cl [Example 421]	100	90	100
Cn1nc(C(=O)NS(=O)(=O)c2ccccc2Cl)nc1-c1ccccc1Cl [Example 14]	90	90	100
COc1ccc(Cl)c(S(=O)(=O)NC(=O)c2nc(-c3ccccc3Cl)n(C)n2)c1 [Example 15]	90	90	100
Cc1[nH]c(-c2ccccc2Cl)nc1C(=O)NS(=O)(=O)c1ccccc1Cl [Example 238]	100	100	100
Cc1cc(F)ccc1S(=O)(=O)NC(=O)c1cn(C)c(-c2c(F)cccc2F)n1 [Example 444]	90	100	100
CC(C)S(=O)(=O)NC(=O)c1nc(-c2ccccc2Cl)n(C)c1Cl [Example 206]	100	100	90
Cn1cc(C(=O)NS(=O)(=O)c2ccc(F)cc2Br)nc1-c1c(F)cccc1F [Example 438]	100	90	90
COc1ccc(Cl)c(S(=O)(=O)NC(=O)c2cn(C)c(-c3ccccc3C)n2)c1 [Example 98]	90	90	100
COc1ccc(F)cc1S(=O)(=O)NC(=O)c1cn(C)c(-c2ncccc2F)n1 [Example 596]	100	90	100
Cn1cc(C(=O)NS(=O)(=O)c2sc(Cl)cc2Br)nc1-c1ccccc1Cl [Example 426]	100	90	100
Cn1cc(C(=O)NS(=O)(=O)c2c(Cl)cccc2Cl)nc1-c1ncccc1Cl [Example 588]	90	90	100
CCc1ccsc1S(=O)(=O)NC(=O)c1cn(C)c(-c2c(F)cccc2F)n1 [Example 419]	100	90	100
CC(C)S(=O)(=O)NC(=O)c1cn(C)c(-c2c(Cl)cccc2Cl)n1 [Example 81]	90	100	90
CCn1cc(C(=O)NS(=O)(=O)c2ccccc2Cl)nc1-c1ccccc1Cl [Example 67]	90	90	100
Cn1cc(C(=O)NS(=O)(=O)c2ccccc2Cl)nc1-c1ccccc1Cl [Example 225]	100	80	100
Cc1cc(C(=O)NS(=O)(=O)c2ccccc2Br)nn1-c1ncccc1Cl [Example 283]	100	90	100
Cc1ccc(S(=O)(=O)NC(=O)c2cn(C)c(-c3c(F)cccc3F)n2)c(C)c1 [Example 443]	90	100	100
COc1ccc(Br)c(S(=O)(=O)NC(=O)c2cn(C)c(-c3cccc(Cl)c3Cl)n2)c1 [Example 557]	90	90	100
Cn1cc(C(=O)NS(=O)(=O)c2c(Cl)cccc2C(F)(F)F)nc1-c1c(F)cccc1F [Example 372]	100	90	100
COc1cc(C(=O)NS(=O)(=O)c2c(Cl)cccc2Cl)nn1-c1ccccc1Cl [Example 270]	90	100	100
Cc1cc(C(=O)NS(=O)(=O)c2ccccc2Br)nn1-c1ncccc1Br [Example 296]	90	90	90
Cn1cc(C(=O)NS(=O)(=O)c2ccccc2Br)nc1-c1c(F)cccc1F [Example 119]	100	90	100
